The nature of data set [1]: Pharmacokinetics (plasma and lung) after single oral dose in mice. It counts as in vivo, Swiss Webster mice. The settings on record: 60 mg/kg p.o. single dose.
For data set [2] the following is noted: cited from earlier work.
[3] abbreviates: Swiss Webster, mouse, po, plasma.

Each structure is given as a SMILES string.

A word on the Cmax: it is the highest concentration seen after dosing. Broadly, the Tmax is the time from dosing to the highest level. What is called half-life is the time in which the quantity being followed falls by half. Broadly, the AUC(0-inf) is the area under the concentration-time curve extrapolated to infinity. A word on the AUC(0-t): it is the area under the concentration-time curve up to a stated or last time point. A lower AUC(0-t) goes with low exposure. As to `COC(=O)N[C@H](C(=O)N1CCC[C@H]1c1nc(-c2ccc(-c3ccc(-c4c[nH]c([C@@H]5CCCN5C(=O)[C@@H](NC(=O)OC)C(C)C)n4)cc3)cc2)c[nH]1)C(C)C` [daclatasvir], in data set [1], the “AUC in plasma relative to lungs” value is reported as approximately 5.9 fold. Moreover, in data set [1] (Swiss Webster, mouse, po, lung), the maximum concentration (Cmax) stood at 6190 ng/g, the time of peak concentration (Tmax) amounted to 0.67 h and the half-life was 14.7 h. Further, in data set [1] (setting [3]), the total exposure AUC(0-inf) amounted to 103 µg·h/mL, the AUC(0-t) was 101 µg·h/mL, the concentration peaked (Cmax) at 22.2 µg/mL and the Tmax worked out at 1 h. In addition, in data set [1] (setting [3]), the half-life is 2.25 h. For the same compound, in data set [1] (lung), the AUClast is given as 16,932 h.ng/g, the “AUC∞” value is on record as 19,123 h.ng/g, the “Ct (last concentration observed above the limit of quantification)” value was determined as 103.46 ng/g and the Tlast worked out at 16.00 h. Besides, the “λ (apparent elimination constant)” value in data set [1] (lung) is listed as 0.0472 h*^−1. Besides, in data set [1] (plasma), the “Ct (last concentration observed above the limit of quantification)” value is given as 353.84 ng/mL, the Tlast is listed as 16.00 h and the “λ (apparent elimination constant)” value is reported as 0.308 h*^−1. Also, the “no-observable-effect level (NOEL)” value in data set [2] (nonhuman primates treated daily for 4–9 months) is reported as 15 mg/kg. Moreover, in data set [2] (nonhuman primates), the tolerated dose is given as 15 mg/kg.

The record behind these values is PMC11680164 (Viruses, 2024).
